As a reminder, the inhibition is the relative decrease from the control value, in per cent. A high value points to a response far below the control.

Assay [1] addresses T1, Aldose reductase (Oryctolagus cuniculus, UniProt P15122).
T1 construct: Aldose reductase is isolated by homogenizing the lens in 3 volumes of water; from tissue; host or cells: lens of mature New Zealand rabbits
Kind of assay: Aldose reductase inhibition in vitro (rabbit lens enzyme, glyceraldehyde substrate, loss of absorbance at 340 millimicrons). As to conditions: 2 min, Table I, relative to non-inhibited control (0%); for inhibition at 100 µM: molar concentration of xanthone compound 1 × 10^-4; for inhibition at 10 µM: molar concentration of xanthone compound 1 × 10^-5; for inhibition at 1 µM: molar concentration of xanthone compound 1 × 10^-6. Format: biochemical, New Zealand rabbit. As to the method:
In brief, a solution of the enzyme is added to an appropriately buffered solution containing glyceraldehyde. The loss of ultra violet absorbance at 340 millimicrons is indicative of the rate of reaction of the aldehyde with the enzyme as previously reported by Hayman and Kinoshita, (J. Biol. Chem: 240, 877, (1965)).
Fifty lenses are obtained from mature, New Zealand, rabbits and are immediately frozen on dry ice. Aldose reductase is isolated by homogenizing the lens in 3 volumes of water for 30 seconds in a Waring blender followed by centrifugation at 10,000 xg for 15 minutes to remove insoluble material. Saturated ammonium sulfate is added to the supernatant fluid to 40% saturation. The suspension is centrifuged after 15 minutes, and the supernatant liquid recovered. Additional protein is removed by increasing the ammonium sulfate concentration to 50%, and centrifuging the mixture. Aldose reductase is precipitated from the 50% saturated solution by the addition of powdered ammonium sulfate to 75% saturation and is recovered by centrifugation. The precipitated enzyme is assayed by following the ultraviolet absorbance at 340 millimicrons after dissolving the enzyme in 0.05 M sodium chloride. The enzyme (0.50 ml) is added to a quartz cuvette containing phosphate buffer (0.067 M, pH 6.0), NADPH (2×10^-5 M), and water to a final volume of 3 ml and the cuvette inserted in a conventional ultra-violet spectrometer. The reaction is started by the addition of substrate (glyceraldehyde) to the contents of the cuvette and is followed by the determination of loss of absorbance at 340 millimicrons for 2 minutes at 37° C. The reaction rate observed is usually linear for at least 5 minutes.
All results are shown in Tables I, II, and III as % inhibition, i.e. based on a non-inhibited control sample, no inhibition, 0%.

In assay [2] the test system is lens aldose reductase. The conditions noted are these: in vitro studies; cited from earlier work.

Take `CN(C)S(=O)(=O)c1ccc2oc3ccc(C(=O)O)cc3c(=O)c2c1`: in assay [1], testing at 100 µM gave an inhibition of 94%, the inhibition at 10 µM came to 87% and testing at 1 µM gave an inhibition of 67%.

In assay [1], `CC(C)CN(C)S(=O)(=O)c1ccc2oc3ccc(C(=O)O)cc3c(=O)c2c1` yielded an inhibition at 100 µM of 95%, an inhibition at 10 µM of 75% and an inhibition at 1 µM of 25%.

Turning to `CN(C)S(=O)(=O)c1ccc2oc3ccc(C(=O)N(CCO)CCO)cc3c(=O)c2c1`, in assay [1], 100 µM produced 86% inhibition, the inhibition at 10 µM worked out at 64% and at 1 µM the inhibition was 29%.

As to `O=C(O)c1ccc2oc3ccc(S(=O)(=O)O)cc3c(=O)c2c1` [H 3 H], the inhibition at 1 µM in assay [1] is 0%.

For the compound `C[C@@H]1O[C@@H](Oc2c(-c3cc(O)c(O)c(O)c3)oc3cc(O)cc(O)c3c2=O)[C@H](O)[C@H](O)[C@H]1O` [myrecetrin], the “inhibition of lens aldose reductase” value in assay [2] is on record as “among the most potent”.

With `O=c1c(O)c(-c2ccc(O)c(O)c2)oc2cc(O)cc(O)c12` [quercetin], the “inhibition of lens aldose reductase” value in assay [2] is recorded as “among the most potent”.

Turning to `C[C@@H]1O[C@@H](Oc2c(-c3ccc(O)c(O)c3)oc3cc(O)cc(O)c3c2=O)[C@H](O)[C@H](O)[C@H]1O` [quercetrin], the “inhibition of lens aldose reductase” value in assay [2] was “among the most potent”.

These data come from patent publication US4232040A, “Compositions for and a method of preventing diabetic complications” (Syntex (U.S.A.) Inc., priority 1978, dated 1980).
